Test results: patent US12180226B2, “Spirotricycle RIPK1 inhibitors and methods of uses thereof” (Merck Sharp & Dohme LLC, priority 2021, dated 2024)
Where a name gives a salt, the structure may show the parent alone.

molecular target: RIPK1 (recombinant GST-RIPK1 kinase domain, residues 1-327) (Homo sapiens (Human), UniProt Q13546); assay: RIPK1-ADP-Glo Enzymatic Assay; format: biochemical; details: ADP-Glo; 25 nM GST-RIPK1, 300 μM ATP; assay lower limit ~25 nM; read-out: RIPK1 V0 Ec50
Protocol: RIPK1-ADP-Glo Enzymatic Assay
The enzymatic activity of RIPK1 is measured using an assay derived from ADP-Glo kit (TMPromega), which provides a luminescent-based ADP detection system. Specifically, the ADP generated by RIPK1 kinase is proportionally detected as luminescent signals in a homogenous fashion. In this context, the assessment of the inhibitory effect of small molecules (EC50) is measured by the effectiveness of the compounds to inhibit the ATP to ADP conversion by RIPK1.
In this assay, the potency (EC50) of each compound was determined from a ten-point (1:3 serial dilution; top compound concentration of 100000 nM) titration curve using the following outlined procedure. The assay bottom or lower limit of confidence is ˜25 nM. To each well of a white ProxiPlus 384 well-plate, 30 nL of compound (1% DMSO in final assay volume of 3 μL) was dispensed, followed by the addition of 2 μL of 1×assay buffer (25 mM Hepes 7.3, 20 mM MgCl2, 50 mM NaCl, 1 mM DTT, 0.005% Tween20, and 0.02% BSA) containing 37.5 nM of GST-RIPK1 (recombinant GST-RIPK1 kinase domain (residues 1-327) enzyme produced from baculovirus-transfected Sf21 cells: MW=62 kDa). Plates were placed in an ambient temperature humidified chamber for a 30-minute pre-incubation with compound. Subsequently, each reaction was initiated by the addition of 1 μL 1×assay buffer containing 900 μM ATP and […] dephosphorylated-MBP substrate. The final reaction in each well of 3 μL consists of 25 nM of GST-RIPK1, 300 μM ATP, and 3 μM dephosphorylated-MBP. Kinase reactions were allowed to proceed for 150 minutes prior to adding ADP-Glo reagents per Promega's outlined kit protocol. Dose-response curves were generated by plotting percent effect (% product conversion; Y-axis) vs. Log10 compound concentrations (X-axis). EC50 values were calculated using a non-linear regression, four-parameters sigmoidal dose-response model.

Chain of RIPK1 (recombinant GST-RIPK1 kinase domain, residues 1-327) (Q13546 1-327): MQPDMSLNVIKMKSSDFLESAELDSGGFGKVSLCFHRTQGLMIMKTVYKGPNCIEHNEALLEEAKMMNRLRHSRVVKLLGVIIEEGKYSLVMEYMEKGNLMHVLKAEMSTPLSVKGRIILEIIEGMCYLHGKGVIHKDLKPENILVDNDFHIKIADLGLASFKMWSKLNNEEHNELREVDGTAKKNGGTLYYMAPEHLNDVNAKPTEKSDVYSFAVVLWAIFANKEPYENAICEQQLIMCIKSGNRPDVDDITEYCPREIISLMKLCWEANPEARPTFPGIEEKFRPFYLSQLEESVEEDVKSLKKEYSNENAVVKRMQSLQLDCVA

O=C(c1cncnc1)N1CCC2(CC1)O[C@@H]1CC[C@@H](c3cc(F)cc(F)c3)N1C2=O [Example 6.40, (5′S,7a′R)-5′-(3,5-difluorophenyl)-1-(pyrimidine-5-car-bonyl)tetrahydro-3′H-spiro[piperidine-4,2′-pyrrolo[2,1-b][1,3]oxazol]-3′-one] and Cc1ccncc1C(=O)N1CCC2(CC1)O[C@@H]1CC[C@@H](c3cc(F)cc(F)c3)N1C2=O [Example 6.51, (5′S,7a′R)-5′-(3,5-difluorophenyl)-1-(4-methylpyridine-3-carbonyl)tetrahydro-3′H-spiro[piperidine-4,2′-pyrrolo[2,1-b] [1,3]oxazol]-3′-one] are within 1.5-fold of each other in EC50: 436 nM for the first, 600 nM for the second.

First: N#Cc1cnnc(N2CCC3(CC2)O[C@@H]2CC[C@@H](c4cc(F)cc(F)c4)N2C3=O)c1 [Example 4.19, 6-[(5′S,7a′R)-5′-(3,5-difluorophenyl)-3′-oxotetrahydro-1H,3′H-spiro[piperidine-4,2′-pyrrolo[2,1-b] [1,3]oxazol]-1-yl]pyridazine-4-carbonitrile]
Second: N#Cc1ccc(N2CCC3(CC2)O[C@@H]2CC[C@@H](c4cc(F)cc(F)c4)N2C3=O)cc1 [Example 4.68, 4-[(5′S,7a′R)-5′-(3,5-difluorophenyl)-3′-oxotetrahydro-1H,3′H-spiro[piperidine-4,2′-pyrrolo[2,1-b] [1,3]oxazol]-1-yl]benzonitrile]
The EC50 of the first is higher: 477 nM for the first, under 25 nM for the second. The second is the more potent here.

First: CC(F)c1cc(N2CCC3(CC2)O[C@@H]2CC[C@@H](c4ccccc4)N2C3=O)ncn1 (stereo partly drawn) [Example 4.214, (5′S,7a′R)-1-[6-(1-fluoroethyl)pyrimidin-4-yl]-5′-phenyltetrahydro-3′H-spiro[piperidine-4,2′-pyrrolo[2,1-b] [1,3]oxazol]-3′-one]
Second: C#Cc1cnc(N2CCC3(CC2)O[C@@H]2CC[C@@H](c4ccccc4)N2C3=O)n2ncnc12 [Example 21.23, (5′S,7a′R)-1-(8-ethynyl[1,2,4]triazolo [1,5-c]pyrimidin-5-yl)-5′-phenyltetrahydro-3′H-spiro[piperidine-4,2′-pyrrolo[2,1-b][1,3]oxazol]-3′-one]
The EC50 of the first is higher: 128 nM for the first, under 25 nM for the second.

Compared with Cc1ocnc1C(=O)N1CCC2(CC1)O[C@@H]1CC[C@@H](c3cccc(F)c3)N1C2=O [Example 6.128, (5′S,7a′R)-5′-(3-fluorophenyl)-1-(5-methyl-1,3-oxazole-4-carbonyl)tetrahydro-3′H-spiro[piperidine-4,2′-pyrrolo[2,1-b] [1,3]oxazol]-3′-one], Cc1nc(C(=O)N2CCC3(CC2)O[C@@H]2CC[C@@H](c4cccc(F)c4)N2C3=O)c(C)o1 [Example 6.126, (5′S,7a′R)-1-(2,5-dimethyl-1,3-oxazole-4-carbonyl)-5′-(3-fluorophenyl)tetra-hydro-3′H-spiro[piperi-dine-4,2′-pyrrolo[2,1-b][1,3]oxazol]-3′-one] is 14-fold higher in EC50: 42.7 nM for the first, 619 nM for the second. The first is the more potent here.

O=C(c1cc(F)ccc1F)N1CCC2(CC1)SC1CCC(c3ccccc3)N1C2=O (stereo not drawn) [Example 1.24, 1-(2,5-difluorobenzene-1-carbonyl)-5′-phenyltetrahydro-3′H-spiro[piperidine-4,2′-pyrrolo[2,1-b] [1,3]thiazol]-3′-one] and O=C(c1ccccc1F)N1CCC2(CC1)O[C@@H]1CC[C@@H](c3ccccc3)N1C2=O [Example 1.10, (5′S,7a′R)-1-(2-fluorobenzene-1-carbonyl)-5′-phenyltetrahydro-3′H-spiro[piperidine-4,2′-pyrrolo[2,1-b] [1,3]oxazol]-3′-one] cannot be ordered by EC50: 23 nM for the first, under 25 nM for the second.

Compared with O=C(c1ccccc1)N1CCC2(CC1)O[C@@H]1CC[C@@H](c3cc(F)cc(F)c3)N1C2=O [Example 1.1, (5′S,7a′R)-1-Benzoyl-5′-(3,5-difluorophenyl)tetrahydro-3′H-spiro[piperidine-4,2′-pyrrolo[2,1-b]oxazol]-3′-one], COc1cccc(C(=O)N2CCC3(CC2)O[C@@H]2CC[C@@H](c4cc(F)cc(F)c4)N2C3=O)n1 [Example 6.12, (5′S,7a′R)-5′-(3,5-difluorophenyl)-1-(6-methoxypyridine-2-carbonyl)tetrahydro-3′H-spiro[piperidine-4,2′-pyrrolo[2,1-b] [1,3]oxazol]-3′-one] is higher in EC50: under 25 nM for the first, 25.1 nM for the second.

Compared with CC1CN(c2cc(C#N)ncn2)CCC12O[C@@H]1CC[C@@H](c3ccccc3)N1C2=O (stereo partly drawn) [Example 4.236, 6-[(4R,5′S,7a′R)-3-methyl-3′-oxo-5′-phenyltetrahydro-1H,3′H-spiro[piperidine-4,2′-pyrrolo[2,1-b] [1,3]oxazol]-1-yl]pyrimidine-4-carbonitrile], O=C1N2[C@@H](CC[C@H]2c2ccccc2)OC12CCN(c1ccc(-c3cc(O)no3)cn1)CC2 [Example 4.193, (5′S,7a′R)-1-[5-(3-hydroxy-1,2-oxazol-5-yl)pyridin-2-yl]-5′-phenyltetrahydro-3′H-spiro[piperidine-4,2′-pyrrolo[2,1-b] [1,3]oxazol]-3′-one] is lower in EC50: 50 nM for the first, under 25 nM for the second.

Going from O=C1N2[C@@H](CC[C@H]2c2ccccc2)OC12CN(c1cccc3ncnn13)C2 [Example 13.22, (5′S,7a′R)-1-([1,2,4]triazolo[1,5-a]pyridin-5-yl)-5′-phenyltetrahydro-3′H-spiro[azetidine-3,2′-pyrrolo[2,1-b]oxazol]-3′-one, TFA salt] to CC1CC2(CCN1c1ccnc3ccnn13)O[C@@H]1CC[C@@H](c3ccccc3)N1C2=O (stereo partly drawn) [Example 4.231, (4R,5′S,7a′R)-2-methyl-5′-phenyl-1-(pyrazolo[1,5-a]pyrimidin-7-yl)tetrahydro-3′H-spiro[piperidine-4,2′-pyrrolo[2,1-b] [1,3]oxazol]-3′-one], the EC50 falls from 37.6 nM to under 25 nM.

O=C(c1cc(C(F)(F)F)cnn1)N1CCC2(CC1)O[C@@H]1CC[C@@H](c3cc(F)cc(F)c3)N1C2=O [Example 6.34, (5′S,7a′R)-5′-(3,5-difluorophenyl)-1-[5-(trifluoromethyl)pyrid-azine-3-carbonyl] tetrahydro-3′H-spiro [piperidine-4,2′-pyrrolo[2,1-b][1,3]oxazol]-3′-one] and Cc1nccnc1C(=O)N1CCC2(CC1)O[C@@H]1CC[C@@H](c3cc(F)cc(F)c3)N1C2=O [Example 6.2, (5′S,7a′R)-5′-(3,5-difluorophenyl)-1-(3-methylpyrazine-2-carbonyl)tetrahydro-3′H-spiro[piperidine-4,2′-pyrrolo[2,1-b] [1,3]oxazol]-3′-one] are within 1.5-fold of each other in EC50: 550 nM for the first, 493 nM for the second.

NC(=O)c1ccc(N2CCC3(CC2)O[C@@H]2CC[C@@H](c4ccccc4)N2C3=O)n2ncnc12 [Example 4.212, 5-[(5′S,7a′R)-3′-oxo-5′-phenyltetrahydro-1H,3′H-spiro[piperidine-4,2′-pyrrolo[2,1-b] [1,3]oxazol]-1-yl] [1,2,4]triazolo[1,5-a] pyridine-8-carboxamide] and O=C1N2C(CCC2c2cc(F)cc(F)c2)SC12CCN(c1ccnc3c(F)cnn13)CC2 (stereo not drawn) [Example 4.110, 5′-(3,5-difluorophenyl)-1-(3-fluoropyrazolo[1,5-a]pyrimidin-7-yl)tetrahydro-3′H-spiro[piperidine-4,2′-pyrrolo[2,1-b]thiazol]-3′-one] cannot be ordered by EC50: under 25 nM for the first, under 25 nM for the second.

O=C(c1cc(C2CC2)on1)N1CCC2(CC1)O[C@@H]1CC[C@@H](c3cc(F)cc(F)c3)N1C2=O [Example 6.25, (5′S,7a′R)-1-(5-cyclo-propyl-1,2-oxazole-3-carbonyl)-5′-(3,5-difluorophenyl)tetra-hydro-3′H-spiro[piperi-dine-4,2′-pyrrolo[2,1-b][1,3]oxazol]-3′-one] was tested, and the EC50 was 82.4 nM.
